According to patent publication US9079861B2, “Cyclic urea inhibitors of 11β-hydroxysteroid dehydrogenase 1” (Vitae Pharmaceuticals, Inc., priority 2007, dated 2015):
Where two headings read alike, the source gives them in different places.

Biological target: T1, human 11β-HSD1 (Homo sapiens, UniProt P28845)
T1 construct: expressed in transfected cells; host or cells: CHO cells (microsomes)
Test: Biological Test Example 1: inhibition of microsomal preparation of 11β-HSD1 (SPA)
Type: biochemical
Conditions: for IC50: microsomes from CHO cells overexpressing human 11β-HSD1; for inhibition at 0.1 µM: read-out: Average % inhibition at 100 nM; for Average % inhibition at 100 nM: 0.1 µM
Description: The inhibition of microsomal preparation of 11β-HSD1 by compounds of the invention was measured essentially as previously described (K. Solly, S. S. Mundt, H. J. Zokian, G. J. Ding, A. Hermanowski-Vosatka, B. Strulovici, and W. Zheng, High-Throughput Screening of 11-Beta-Hydroxysteroid Dehydrogenase Type 1 in Scintillation Proximity Assay Format. Assay Drug Dev Technol 3 (2005) 377-384). All reactions were carried out at room temperature in 96 well clear flexible PET Microbeta plates (PerkinElmer). The assay begins by dispensing 49 μl of substrate solution (50 mM HEPES, pH 7.4, 100 mM KCl, 5 mM NaCl, 2 mM MgCl2, 2 mM NADPH and 160 nM [^3H]cortisone (1 Ci/mmol)) and mixing in 1 μL of the test compounds in DMSO previously diluted in half-log increments (8 points) starting at 0.1 mM. After a 10 minute pre-incubation, 50 μL of enzyme solution containing microsomes isolated from CHO cells overexpressing human 11β-HSD1 (10-20 μg/ml of total protein) was added, and the plates were incubated for 90 minutes at room temperature. The reaction was stopped by adding 50 μl of the SPA beads suspension containing 10 μM 18β-glycyrrhetinic acid, 5 mg/ml protein A coated YSi SPA beads (GE Healthcare) and 3.3 μg/ml of anti-cortisol antibody (East Coast Biologics) in Superblock buffer (Bio-Rad). The plates were shaken for 120 minutes at room temperature, and the SPA signal corresponding to [^3H]cortisol was measured on a Microbeta plate reader.

T1 sequence (P28845 whole entry): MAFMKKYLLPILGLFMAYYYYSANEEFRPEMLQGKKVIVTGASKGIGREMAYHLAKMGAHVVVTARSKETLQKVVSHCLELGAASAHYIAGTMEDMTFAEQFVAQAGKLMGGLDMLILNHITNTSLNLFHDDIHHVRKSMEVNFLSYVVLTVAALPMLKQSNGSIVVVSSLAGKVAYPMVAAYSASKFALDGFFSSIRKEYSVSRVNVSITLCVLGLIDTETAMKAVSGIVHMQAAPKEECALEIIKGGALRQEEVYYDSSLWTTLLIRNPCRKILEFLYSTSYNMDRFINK

SMILES | IC50 (read-out: IC50 Range) [nM] | inhibition at 0.1 µM (at 100 nM) [%] | other results
C=CC[C@@]1(c2ccc(F)cc2)CCN([C@@H](C)c2ccc(Br)cc2)C(=O)N1 (single isomer, unassigned) [Example 2 Isomer 2] | – | – | IC50 (IC50 Range): < 100 nM; inhibition at 0.1 µM: 69.5%
C=CC[C@]1(c2ccc(F)cc2)CCN([C@@H](C)c2ccc(Br)cc2)C(=O)N1C (single isomer, unassigned) [Example 3 Isomer 1] | < 100 | – | inhibition at 0.1 µM: 51.2%
C=CC[C@@]1(c2ccc(F)cc2)CCN([C@@H](C)c2ccc(Br)cc2)C(=O)N1C (single isomer, unassigned) [Example 3 Isomer 2] | < 100 | – | inhibition at 0.1 µM: 60.5%
C[C@@H](c1ccc(-c2ccc(F)cc2F)cc1)N1CC[C@](CCO)(c2ccc(F)cc2)NC1=O (single isomer, unassigned) [Example 6 Isomer 1] | < 100 | 97.2 | –
C[C@@H](c1ccc(-c2ccc(F)cc2F)cc1)N1CC[C@@](CCO)(c2ccc(F)cc2)NC1=O (single isomer, unassigned) [Example 6 Isomer 2] | < 100 | 47.7 | –
C[C@@H](c1ccc(-c2ccc(F)cc2F)cc1)N1CC[C@](CCCO)(c2ccc(F)cc2)NC1=O (single isomer, unassigned) [Example 7 Isomer 1] | < 100 | 94.8 | –
C[C@@H](c1ccc(-c2ccc(F)cc2F)cc1)N1CC[C@@](CCCO)(c2ccc(F)cc2)NC1=O (single isomer, unassigned) [Example 7 Isomer 2] | < 100 | 71 | –
C[C@@H](c1ccc(-c2ccc(F)cc2F)cc1)N1CC[C@](CC(O)CO)(c2ccc(F)cc2)NC1=O (single isomer, unassigned) [Example 8 Isomer 1] | < 100 | 96.3 | –
C[C@@H](c1ccc(-c2ccc(F)cc2F)cc1)N1CC[C@](CC(O)CO)(c2ccc(F)cc2)NC1=O (single isomer, unassigned) [Example 8 Isomer 2] | < 100 | – | Average % inhibition at 100 nM (at 100 nM): 94.8%
C[C@@H](c1ccc(-c2ccc(F)cc2)cc1)N1CC[C@](CC(O)CO)(c2ccc(F)cc2)NC1=O (single isomer, unassigned) [Example 9 Isomer 1] | < 100 | 94.5 | –
C[C@@H](c1ccc(-c2ccc(F)cc2)cc1)N1CC[C@](CC(O)CO)(c2ccc(F)cc2)NC1=O (single isomer, unassigned) [Example 9 Isomer 2] | < 100 | – | Average % inhibition at 100 nM (at 100 nM): 93.5%
C[C@@H](c1ccc(-c2ccc(F)cc2)cc1)N1CC[C@@](CC(O)CO)(c2ccc(F)cc2)NC1=O (single isomer, unassigned) [Example 9 Isomer 3] | < 100 | – | Average % inhibition at 100 nM (at 100 nM): 38.5%
C[C@@H](c1ccc(-c2ccc(F)cc2)cc1)N1CC[C@@](CC(O)CO)(c2ccc(F)cc2)NC1=O (single isomer, unassigned) [Example 9 Isomer 4] | > 100 | – | Average % inhibition at 100 nM (at 100 nM): 16.5%
C[C@@H](c1ccc(-c2ccc(F)cc2)cc1)N1CC[C@](CCCO)(c2ccc(F)cc2)NC1=O (single isomer, unassigned) [Example 10 Isomer 1] | < 100 | 102 | –
C[C@@H](c1ccc(-c2ccc(F)cc2)cc1)N1CC[C@@](CCCO)(c2ccc(F)cc2)NC1=O (single isomer, unassigned) [Example 10 Isomer 2] | < 100 | 54.2 | –
C[C@@H](c1ccc(Br)cc1)N1CC[C@](CCCO)(c2ccc(F)cc2)N(C)C1=O (single isomer, unassigned) [Example 11 Isomer 1] | < 100 | 64.4 | –

SMILES | IC50 (read-out: IC50 Range) [nM] | inhibition at 0.1 µM (at 100 nM) [%] | other results
C[C@@H](c1ccc(Br)cc1)N1CC[C@@](CCCO)(c2ccc(F)cc2)N(C)C1=O (single isomer, unassigned) [Example 11 Isomer 2] | > 100 | 26.1 | –
C[C@@H](c1ccc(-c2ccc(F)cc2)cc1)N1CC[C@](CCCO)(c2ccccc2)NC1=O (single isomer, unassigned) [Example 14 Isomer 1] | < 100 | 95.5 | –
C[C@@H](c1ccc(-c2ccc(F)cc2)cc1)N1CC[C@@](CCCO)(c2ccccc2)NC1=O (single isomer, unassigned) [Example 14 Isomer 2] | < 100 | 58 | –
Cc1cccc(N2CC[C@](C)(c3ccccc3)NC2=O)c1 [Example 1, (R)-4-methyl-4-phenyl-1-m-tolyltetrahydropyrimidin-2(1H)-one] | – | – | IC50 (IC50 Range): 100 to 1000 nM; inhibition at 0.1111 µM (read-out: Average % inhibition at 111.1 nM): 49.4%
C[C@@H](c1ccc(Cl)cc1)N1CC[C@](CCO)(c2ccc(F)cc2)NC1=O [Example 12, (S)-1-((S)-1-(4-chlorophenyl)ethyl)-4-(4-fluorophenyl)-4-(2-hydroxyethyl)tetrahydropyrimidin-2(1H)-one] | < 100 | 96.9 | –
C[C@@H](c1ccc(Cl)cc1)N1CC[C@](CCCO)(c2ccc(F)cc2)NC1=O [Example 13, 1-((1S)-1-(4-chlorophenyl)ethyl)-4-(4-fluorophenyl)-4-(3-hydroxypropyl)tetrahydropyrimidin-2(1H)-one] | < 100 | 96.1 | –
C[C@@H](C1CCCCC1)N1CC[C@](CCCO)(c2ccccc2)NC1=O [Example 15, (R)-1-((S)-1-cyclohexylethyl)-4-(3-hydroxypropyl)-4-phenyltetrahydropyrimidin-2(1H)-one] | < 100 | 96.1 | –
COc1ccc([C@H](C)N2CC[C@](CCCO)(c3ccc(F)cc3)NC2=O)cc1 [Example 16, (R)-4-(4-fluorophenyl)-4-(3-hydroxypropyl)-1-((S)-1-(4-methoxyphenyl)ethyl)tetrahydropyrimidin-2(1H)-one] | < 100 | 96.1 | –
COc1ccc([C@H](C)N2CC[C@](CCO)(c3ccc(F)cc3)NC2=O)cc1 [Example 17, (S)-4-(4-fluorophenyl)-4-(2-hydroxyethyl)-1-((S)-1-(4-methoxyphenyl)ethyl)tetrahydropyrimidin-2(1H)-one] | < 100 | 94.3 | –
C[C@@H](c1ccc(Br)cc1)N1CC[C@](CCCO)(c2ccc(F)cc2)NC1=O [Example 18, (R)-1-((S)-1-(4-bromophenyl)ethyl)-4-(4-fluorophenyl)-4-(3-hydroxypropyl)tetrahydropyrimidin-2(1H)-one] | < 100 | 97.5 | –
C[C@@H](c1ccc(Br)cc1)N1CC[C@](CCCNS(C)(=O)=O)(c2ccc(F)cc2)NC1=O [Example 19, N-(3-((R)-1-((S)-1-(4-bromophenyl)ethyl)-4-(4-fluorophenyl)-2-oxohexahydropyrimidin-4-yl)propyl)methanesulfonamide] | < 100 | – | inhibition at 0.1 µM: 96%
C[C@@H](c1ccc(Br)cc1)N1CC[C@](CC(C)(C)O)(c2ccccc2)NC1=O [Example 20, (S)-1-((S)-1-(4-bromophenyl)ethyl)-4-(2-hydroxy-2-methylpropyl)-4-phenyltetrahydropyrimidin-2(1H)-one] | < 100 | 94.4 | –
C[C@@H](c1ccc(-c2ccn(C)c(=O)c2)cc1)N1CC[C@](CC(C)(C)O)(c2ccccc2)NC1=O [Example 21, (S)-4-(2-hydroxy-2-methylpropyl)-1-((S)-1-(4-(1-methyl-2-oxo-1,2-dihydropyridin-4-yl)phenyl)ethyl)-4-phenyltetrahydropyrimidin-2(1H)-one] | < 100 | 93.9 | –
C[C@@H](C1CCCCC1)N1CC[C@](CCCO)(c2ccccc2)N(C)C1=O [Example 22, (R)-1-((S)-1-cyclohexylethyl)-4-(3-hydroxypropyl)-3-methyl-4-phenyltetrahydropyrimidin-2(1H)-one] | > 100 | 30 | –
C[C@@H](c1ccc(Br)cc1)N1CC[C@](CC(C)(C)C#N)(c2ccccc2)NC1=O [Example 23, 3-((R)-1-((S)-1-(4-bromophenyl)ethyl)-2-oxo-4-phenylhexahydropyrimidin-4-yl)-2,2-dimethylpropanenitrile] | < 100 | 95.8 | –
